Consider 1 molecule from PMC12337281, “mTORC1-selective inhibitors rescue cellular phenotypes in TSC iPSC-derived neurons” (Frontiers in Neuroscience, 2025).

SMILES strings stand for the structures. Bounds are passed on as bounds.

The test relates to TSC2–/– iPSC-derived neurons. The test is described as follows: MEA weighted mean firing rate in TSC2–/– iPSC-derived neurons. It counts as cell-based, human. The source says: TSC2^–/– iPSC-derived cortical neurons were differentiated in two to three replicate batches, defined as independent plating of starting material iPSCs and use of reagents to differentiate iPSCs into neurons. The NGN2-induced cortical neurons were differentiated following previously published methods ([Winden et al., 2019]; [Zhang et al., 2013]) that are also described here. To establish a line of iPSCs expressing the NGN2 vector, on differentiation day - 2, iPSCs were dissociated with Accutase (Innovative Cell Technologies #AT104) and plated as single cells at 90,000 cells/cm^2 in mTeSR-1 media supplemented with 10 μM ROCK inhibitor (Y-27631, Cayman Chemical #10005583), on Geltrex-coated 12-well plates. While iPSCs were routinely cultured with StemFlex (as noted above), the NGN2 differentiation was optimized with mTeSR-1 media, so the switch was made to this media prior to initiating differentiation. One day after re-plating as single cells, on differentiation day - 1, iPSCs were transduced with lentiviral vectors expressing NGN2 and rtTA and 8 μg/ml polybrene (Sigma-Aldrich #TR-1003-G). The lentiviral particles were produced and concentrated at the Viral Core at Boston Children’s Hospital and were added to the culture at an MOI of 5 for each vector. Both plasmids are available at Addgene with the following IDs: 52047 and 20342. […]

The term IC50 denotes the concentration that gives 50% inhibition. A high value points to weaker potency. `CO[C@H]1C[C@@H]2CC[C@@H](C)[C@@](O)(O2)C(=O)C(=O)N2CCCC[C@H]2C(=O)O[C@H]([C@H](C)C[C@@H]2CC[C@@H](O)[C@H](OC)C2)CC(=O)[C@H](C)/C=C(\C)[C@@H](O)[C@@H](OC)C(=O)[C@H](C)C[C@H](C)/C=C/C=C/C=C/1C` [Rapamycin, rapamycin] registered an IC50 (Homo sapiens, Neuron, day 23, after 2 weeks treatment until day 21, replicate batch #1) of 0.015 nM. In addition, the “Dose at which WMFR was lowered” value (during the 2 weeks treatment window, vs DMSO) was > 0.1 nM.
